Results taken from patent US8846951B2 (AbbVie Inc., priority 2009, dated 2014).
“Also recorded” adds a separate entry of the source.

Key:
[1] = tested on: AMP- or PCP-induced hyperactivity; test: Psychostimulant (AMP or PCP)-induced hyperlocomotion in mice; type: in vivo, mouse; conditions: test compound ip 30 min before d-amphetamine 2.0 mg/kg sc
Text: (x) Assessment of Effects on Psychostimulant-Induced Hyperlocomotion in Mice
In both humans and experimental animals amphetamine (AMP) profoundly affects motor activity, sensorimotor function, sleep, attention, aggressive and sexual behaviors, learning and memory, operant behaviors, appetite and food intake. In addition, amphetamine induces psychotic reactions in normal individuals and exacerbates symptoms of schizophrenia in patients. In experimental animals several distinct behaviors are considered to be correlates of amphetamine psychosis. For example, amphetamine-induced hyperactivity in rodents is believed to model the psychotic symptoms of schizophrenia. Reversal of these behaviors is used to predict potential antipsychotic activity of drugs in pre-clinical studies.
In humans, phencyclidine (PCP) is known to produce a syndrome of behavioral effects which have many characteristics in common with schizophrenia. Therefore, antagonism of PCP effects might be evidence for antipsychotic efficacy of a compound.
Male NMRI mice (5-week old, Janvier, France) or C57BL/6J mice (6-week old, Janvier, France) were group housed and allowed ad-libitum access to food and water. A 12 hour light/dark cycle was imposed with lights-on period between 0530 and 1730 hours. All testing occurred between 700 and 1300 hours. All procedures were approved by Abbott Institutional Animal Care and Use Committee (USA) or Animal Welfare Officer (Germany) and were conducted in accordance with the National Institutes of Health Guide for Care and Use of Laboratory Animals guidelines and applicable national laws in the facilities accredited by the Association for the Assessment and Accreditation of Laboratory Animal Care.
On the day of experiment, animals were brought from the animal facility into the experimental room and were allowed to acclimatize for at least 30 minutes. Animals were then placed in the test cages for a habituation period of 60 minutes. The animals were then injected ip with the test compound and returned to the test cage. 30 Minutes later the mice were injected with d-amphetamine (2.0 mg/kg, AMP, Sigma, #A5880, sc) or phencyclidine (2.0 mg/kg, PCP, Sigma, #P3029, sc) Sigma, and returned to the test cages for 90 minutes. Each treatment group consisted of 8-10 animals. The data was acquired by Cage rack Photobeam system (SDI, San Diego Instruments, CA). The analyzed data were: fine movements, ambulations and total movements (fine+ambulations). Data was subjected to one- or two-way distribution-free ANOVA followed by Dunnett's and Tukey's post hoc tests.

[2] = tested on: conditioned avoidance response (CAR) behavior; test: Conditioned avoidance responding in rats; type: in vivo, rat; conditions: male Wistar rats
Method: The fact that antipsychotics have the unique ability to selectively suppress CAR behavior, made the CAR test a useful tool for the screening of new, potentially antipsychotic compounds. […] Animals Male Wistar rats (9-11 weeks old, Charles River, Germany) were pair-housed and allowed ad-libitum access to food and water. A 12-hour light/dark cycle was imposed with lights-on period between 0530 and 1730 hours. All testing occurred between 700 and 1300 hours. All procedures were approved by Abbott Institutional Animal Care and Use Committee (USA) or Animal Welfare Officer (Germany) and were conducted in accordance with the National Institutes of Health Guide for Care and Use of Laboratory Animals guidelines and applicable national laws in the facilities accredited by the Association for the Assessment and Accreditation of Laboratory Animal Care. Methods Wistar rats are exposed to a conditioned stimulus CS (a 2.9-kHz tone of 10 second duration), which is a signal for the animal that it must move into the other chamber in order to avoid an immediately ensuing footshock US (0.5 mA, 10 second, tone continues during shock presentation). Once the shock has begun, the animal can still escape it by moving to the other chamber. Each session is limited to a maximum of 40 trials (intertrial interval 10-90 seconds). The animals generally learn quickly to change chambers upon the conditioned stimulus and thus avoid further shocks. Scored are: • Avoided responses=crossings into other compartment within 10 seconds of tone presentation; • Escaped responses=crossings between 10-20 seconds of tone presentation; • Failures=crossings after cessation of tone-shock presentation or no crossing. […] At the test sessions (=CS-shock pairings), animals are pre-treated with a test drug or vehicle 30 minutes before commencement of the session.

5HT2B receptors = molecular target: T1, 5HT2B receptors (Homo sapiens, UniProt P41595); test: Human 5-HT2B functional high throughput screening assay in CHO-K1 cells (calcium flux); type: cell-based
T1 construct: expressed in transfected cells; host or cells: CHO-K1 cells
T1 sequence (P41595 whole entry): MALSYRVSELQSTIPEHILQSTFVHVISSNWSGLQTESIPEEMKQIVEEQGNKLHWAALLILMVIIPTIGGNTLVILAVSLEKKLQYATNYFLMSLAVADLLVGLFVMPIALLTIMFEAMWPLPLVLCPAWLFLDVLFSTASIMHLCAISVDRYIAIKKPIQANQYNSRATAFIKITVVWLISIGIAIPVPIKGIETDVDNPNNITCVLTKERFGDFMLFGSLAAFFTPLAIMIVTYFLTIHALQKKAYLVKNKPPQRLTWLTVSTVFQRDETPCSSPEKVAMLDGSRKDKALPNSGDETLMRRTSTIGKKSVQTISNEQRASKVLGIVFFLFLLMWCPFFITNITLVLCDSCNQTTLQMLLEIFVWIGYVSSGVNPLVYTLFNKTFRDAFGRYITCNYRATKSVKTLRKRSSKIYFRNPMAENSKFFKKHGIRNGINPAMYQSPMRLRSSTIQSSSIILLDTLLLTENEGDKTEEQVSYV
Procedure, shortened: (§1)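 Agonism is measured as intracellular calcium increase in receptor-overexpressing CHO-K1 cells, read by FLIPR at 25 °C. Responses are expressed relative to serotonin, with EC50 and Emax derived from a 4-parameter logistic curve over 6 concentrations starting at 10 μM.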

5HT2C receptors = molecular target: T2, 5HT2C receptors (Homo sapiens, UniProt P28335); test: Human 5-HT2C functional high throughput screening assay in CHO-K1 cells (calcium flux); type: cell-based; design: expressed in transfected cells; host or cells: CHO-K1 cells
T2 sequence (P28335 33-458): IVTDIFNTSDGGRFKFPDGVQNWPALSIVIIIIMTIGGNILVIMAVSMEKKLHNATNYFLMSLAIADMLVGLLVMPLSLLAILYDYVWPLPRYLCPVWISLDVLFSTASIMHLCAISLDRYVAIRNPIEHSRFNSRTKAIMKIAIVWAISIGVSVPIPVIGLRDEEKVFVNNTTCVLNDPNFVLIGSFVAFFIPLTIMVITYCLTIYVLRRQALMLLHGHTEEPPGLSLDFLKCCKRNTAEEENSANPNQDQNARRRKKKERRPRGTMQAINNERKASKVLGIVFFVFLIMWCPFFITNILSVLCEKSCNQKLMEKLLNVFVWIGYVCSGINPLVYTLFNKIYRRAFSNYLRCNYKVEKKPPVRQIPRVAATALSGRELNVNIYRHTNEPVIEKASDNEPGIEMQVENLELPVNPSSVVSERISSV
Procedure, shortened: as §1

EC50 (5HT2B receptors; 5-HT2B agonist activity, CHO-K1 cells, calcium flux, read-out: EC50): > 10000 nM
Emax (5HT2B receptors; 5-HT2B, maximum functional response as percentage relative to the effect of serotonin): inactive
EC50 (5HT2C receptors; 5-HT2C agonist activity, CHO-K1 cells, calcium flux, read-out: EC50): 0.6 nM
Emax (5HT2C receptors; CHO-K1, 5-HT2C, maximum functional response as percentage relative to the effect of serotonin, read-out: Emax): > 120%
SMILES: COc1ccc(-c2ccc3c(c2)C(=O)NC[C@H]2CN(C)C[C@H]32)cc1 [Example 158, (3aS,10bS)-8-(4-Methoxyphenyl)-2-methyl-1,2,3,3a,4,5-hexahydrobenzo[e]pyrrolo[3,4-c]azepin-6(10bH)-one]
AMP-induced hyperactivity [1]: attenuated AMP-induced hyperactivity in mice significantly and in a dose dependent manner; also recorded: attenuating the affect of d-amphetamine (AMP)
conditioned avoidance behavior (avoided responses) ([2]; acute, 30 minutes before session): significantly suppressed conditioned avoidance behavior
number of failures ([2]; indicator of sedation or extrapyramidal side effects): without affecting the number of failures
